Patent EP2636410A1, “Utilization of the dichlorido complexes of platinum with 7-azaindole halogeno-derivatives for the preparation of drugs for the treatment of tumour diseases” (Univerzita Palackeho, priority 2012, dated 2013)

Assays:
Assay in all cases: In vitro cytotoxicity, MTT micro-titration analysis
Format in all cases: cell-based
[1] = test system: human cancer cell line of malignant melanoma G361; conditions: G361 cells, 24 h incubation with complex, read-out: inhibition concentrations IC50
Procedure: (§1) The cytotoxic activities of the prepared complexes, as it is given below in the examples 1-6, were tested by micro-titration analysis using 3-(4,5-dimethylthiazol-2-yl)-2,5-diphenyltetrazolium bromide (MTT). The test detected living cells, whose number corresponds to the reduced MTT quantity. In vitro cytotoxicity was tested against the following human cancer cells: lung carcinoma A549, malignant melanoma G361, cervix carcinoma HeLa, ovarian carcinoma A2780, cisplatin-resistant ovarian carcinoma A2780R and prostate carcinoma LNCaP. The cells were maintained in plastic tissue culture flasks in the DMEM medium (5 g/L of glucose, 2 mM of glutamine, 100 U/mL of penicillin, 100 µg/mL of streptomycine, 10% fetal calf serum and sodium hydrogen carbonate) for cell cultures. The cell suspensions (ca 1.25 x 10^5 cells mL^-1) were pipetted (80 µL) into 96-well microplates. They were incubated at 37 °C in the CO2 atmosphere for 24 h. The tested dichlorido complexes of platinum were dissolved in N,N'-dimethylformamide (DMF) and diluted to the 50.0 mM concentration - these solutions represent the stock solutions. […]
The in vitro antitumor activity of the studied complexes cis-[PtCl2(L2)2] […] (3) against human cancer cell line of malignant melanoma G361 was determined by the above-described micro-titration analysis using MTT (L2 = 3-chloro-7-azaindole, L3 = 3-iodo-7-azaindole, L6 = 5-bromo-7-azaindole).

[2] = test system: human cancer cell line of lung carcinoma A549; conditions: A549 cells, 24 h incubation with complex, read-out: inhibition concentrations IC50
Procedure: as §1
The in vitro antitumor activity of the studied complexes cis-[PtCl2(L2)2] […] (3) against human cancer cell line of lung carcinoma A549 was determined by the above-described micro-titration analysis using MTT (L2= 3-chloro-7-azaindole, L3 = 3-iodo-7-azaindole, L6 = 5-bromo-7-azaindole).

[3] = test system: human cancer cell line of prostate carcinoma LNCaP; conditions: LNCaP cells, 24 h incubation with complex, read-out: inhibition concentrations IC50
Procedure: as §1
The in vitro antitumor activity of the studied complexes cis-[PtCl2(L2)2] […] (3) against human cancer cell line of prostate carcinoma LNCaP was determined by the above-described micro-titration analysis using MTT (L2 = 3-chloro-7-azaindole, L3 = 3-iodo-7-azaindole, L6 = 5-bromo-7-azaindole).

[4] = test system: human cancer cell line of cervix carcinoma HeLa; conditions: HeLa cells, 24 h incubation with complex, read-out: inhibition concentrations IC50
Procedure: as §1
The in vitro antitumor activity of the studied complexes cis-[PtCl2(L2)2] […] (3) against human cancer cell line of cervix carcinoma HeLa was determined by the above-described micro-titration analysis using MTT (L2 = 3-chloro-7-azaindole, L3 = 3-iodo-7-azaindole, L6 = 5-bromo-7-azaindole).

[5] = test system: human cancer cell line of ovarian carcinoma A2780; conditions: A2780 cells, 24 h incubation with complex, read-out: inhibition concentrations IC50
Procedure: as §1
The in vitro antitumor activity of the studied complexes cis-[PtCl2(L2)2] […] (3) against human cancer cell line of ovarian carcinoma A2780 was determined by the above-described micro-titration analysis using MTT (L2 = 3-chloro-7-azaindole, L3 = 3-iodo-7-azaindole, L6 = 5-bromo-7-azaindole).

[6] = test system: human cancer cell line of cisplatin-resistant ovarian carcinoma A2780R; conditions: A2780R cells, 24 h incubation with complex, read-out: inhibition concentrations IC50
Procedure: as §1, with “h.” for “h. The tested dichlorido complexes of platinum were dissolved in N,N'-dimethylformamide (DMF) and diluted to the 50.0 mM concentration - these solutions represent the stock solutions.”
The in vitro antitumor activity of the studied complexes cis-[PtCl2(L2)2] […] (3) against human cancer cell line of cisplatin-resistant ovarian carcinoma A2780R was determined by the above-described micro-titration analysis using MTT (L2 = 3-chloro-7-azaindole, L3 = 3-iodo-7-azaindole, L6 = 5-bromo-7-azaindole).

N.N.[Cl][Pt][Cl] [cisplatin, Cis-diammine-dichloridoplatinum(II) complex, reference compound]
IC50 [1]: 3.4 ± 0.1 µM
IC50 [2]: 25.8 ± 7.1 µM
IC50 [3]: 3.8 ± 1.5 µM
IC50 [4]: 10 ± 2.6 µM
IC50 [5]: 12 ± 0.8 µM
IC50 [6]: 27 ± 4.6 µM
